From ChEMBL document CHEMBL2074220, “Interaction of human organic anion transporters with various cephalosporin antibiotics” (Eur J Pharmacol, 2002)

Key:
[1] = target: T1, Organic anion transporter 3 (Homo sapiens, UniProt Q8TCC7); test: TP_TRANSPORTER: inhibition of Estrone sulfate uptake in OAT3-expressing S2 cells; format: functional, cell-based
T1 sequence (Q8TCC7 whole entry): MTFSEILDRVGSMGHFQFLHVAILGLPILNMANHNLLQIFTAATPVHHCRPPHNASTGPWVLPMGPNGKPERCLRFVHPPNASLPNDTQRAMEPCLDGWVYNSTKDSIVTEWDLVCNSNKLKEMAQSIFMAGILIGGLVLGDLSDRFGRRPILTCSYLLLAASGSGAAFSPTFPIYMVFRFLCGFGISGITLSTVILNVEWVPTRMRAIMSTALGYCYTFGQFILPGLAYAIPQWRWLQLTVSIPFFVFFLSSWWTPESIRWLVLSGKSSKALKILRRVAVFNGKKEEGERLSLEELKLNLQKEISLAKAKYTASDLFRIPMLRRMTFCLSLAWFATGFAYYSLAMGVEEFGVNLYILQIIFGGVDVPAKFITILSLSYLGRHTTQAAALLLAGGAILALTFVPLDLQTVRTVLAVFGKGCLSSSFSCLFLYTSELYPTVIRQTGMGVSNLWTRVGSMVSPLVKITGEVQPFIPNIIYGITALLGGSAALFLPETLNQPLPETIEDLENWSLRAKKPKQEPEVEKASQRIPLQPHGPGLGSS

[2] = target: T2, Solute carrier family 22 member 11 (Homo sapiens, UniProt Q9NSA0); test: TP_TRANSPORTER: inhibition of Estrone sulfate uptake in OAT4-expressing S2 cells; format: functional, cell-based
T2 sequence (Q9NSA0 whole entry): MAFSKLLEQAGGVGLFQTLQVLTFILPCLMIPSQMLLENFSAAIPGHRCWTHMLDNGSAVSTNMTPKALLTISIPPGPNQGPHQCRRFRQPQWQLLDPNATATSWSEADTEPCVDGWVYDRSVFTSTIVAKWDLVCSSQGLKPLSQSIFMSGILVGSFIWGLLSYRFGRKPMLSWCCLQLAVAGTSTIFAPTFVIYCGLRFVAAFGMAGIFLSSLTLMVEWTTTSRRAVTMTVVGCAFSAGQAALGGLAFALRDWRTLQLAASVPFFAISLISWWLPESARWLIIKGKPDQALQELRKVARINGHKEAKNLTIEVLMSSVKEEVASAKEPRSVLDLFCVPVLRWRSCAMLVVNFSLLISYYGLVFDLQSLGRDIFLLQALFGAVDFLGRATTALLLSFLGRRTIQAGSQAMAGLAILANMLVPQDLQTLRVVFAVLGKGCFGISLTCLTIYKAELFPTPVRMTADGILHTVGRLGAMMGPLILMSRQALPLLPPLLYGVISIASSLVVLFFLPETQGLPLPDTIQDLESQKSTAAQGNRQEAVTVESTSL

Row | Ki [1] [µM] | Ki [2] [µM] | Compound
1 | 46 | – | Cn1nnnc1SCC1=C(C(=O)O)N2C(=O)[C@@H](NC(=O)[C@H](O)c3ccccc3)[C@H]2SC1 [CEFAMANDOLE]
2 | 550 | – | Cc1nnc(SCC2=C(C(=O)O)N3C(=O)[C@@H](NC(=O)Cn4cnnn4)[C@H]3SC2)s1 [CEFAZOLIN]
3 | 290 | – | CO/N=C(\C(=O)N[C@@H]1C(=O)N2C(C(=O)O)=C(COC(C)=O)CS[C@H]12)c1csc(N)n1 [CEFOTAXIME]
4 | 40 | 200 | CC(=O)OCC1=C(C(=O)O)N2C(=O)[C@@H](NC(=O)Cc3cccs3)[C@H]2SC1 [CEPHALOTHIN]
